The text below walks through data of patent publication US20240101571A1, “NLRP3 MODULATORS” (Zomagen Biosciences Ltd, priority 2020, published 2024).

Assay [1] concerns IL-1b. Put plainly: Mouse BMDM IL-1b Assay. It counts as cell-based. To be noted: Macrophage, C57BL6 bone marrow derived macrophages, 200 ng/mL LPS 3 h, compound 30 min, 5 mM ATP 45 min, IL-1b ELISA of supernatant. How it is done: Mouse bone marrow cells from C57BL6 tibia and femur were culture in complete Isocov's Media supplemented with 20 ng/mL MCSF (BMDM media) at a density of 50 million cells/15 cm Petri dish. Fresh media was changed every 3 days, and bone marrow derived macrophages were collected, washed, and counted on day 7. Cells were seeded into 96 well plates at a density of 5×10^4 cells per well in 100 uL of BMDM media and cultured overnight. The cells were stimulated at 37° C. with 200 ng/mL Ultrapure LPS-B5 for 3 hours before pre-diluted compounds were added. 30 minutes after compound addition, 5 mM ATP was added for the secondary stimulation for 45 minutes. After stimulation, the plates were briefly spun down, and 50 uL of supernatant was harvested from each well. ELISA for mouse IL-1b was performed with 1:10 and 1:100 diluted supernatant using pre-coated kits. IL-1b concentrations were calculated based on pre-titrated standards, and compound inhibition IC50 is generated using the Levenberg Marquardt damped lease-square method.

The test system of assay [2] is IL-1b. Put plainly: Human Whole Blood (HWB) IL-1b Assay. It counts as cell-based. As to conditions: compound 0.5 h, 100 ng/mL LPS 3.5 h, 5 mM ATP 45 min, IL-1b ELISA of supernatant. The protocol:
Assay run as in Tran et al. “Whole blood assay as a model for in vitro evaluation of inflammasome activation and subsequent caspase-mediated interleukin-1 beta release” PLoSONE 14(4): e0214999.https://doi.org/10.1371/journal.pone.0214999. Namely, freshly drawn human whole blood with anti-coagulant was incubated with test compounds at various titration points for 0.5 hrs at 37° C. in 5% CO2. The cells were subsequently primed with 100 ng/mL LPS for 3.5 hours at 37° C. followed by stimulation with 5 mM ATP for an additional 45 minutes. The supernatant was harvested and analyzed for human IL-1b concentration using commercially available ELISA kits.

In general, IC50 refers to the point on the concentration scale where inhibition reaches its midpoint. Low readings indicate greater potency in that assay, high ones weaker potency in that assay.

As for `O=C(Nc1c2c(cc3c1CCC3)CCC2)NS(=O)(=O)c1cc2c(o1)C1CCN(CC1)C2` [Compound 13, sodium ((1,2,3,5,6,7-hexahydro-s-indacen-4-yl)carbamoyl)((4,6,7,8-tetrahydro-5,8-ethanofuro[3,2-c]azepin-2-yl)sulfonyl)amide], the figures for the IC50 in assay [1] and in assay [2] were below 100 nM and below 1000 nM, respectively.

In assay [2], `O=C(Nc1c2c(cc3c1CCC3)CCC2)NS(=O)(=O)c1cc2c(s1)C1CCN(CC1)C2` [Compound 25] showed an IC50 below 1000 nM.

In assay [1], `O=C(Nc1c2c(cc3c1CCC3)CCC2)NS(=O)(=O)c1cc2c(s1)C1CCN(CC1)C2` [Compound 26, sodium ((1,2,3,5,6,7-hexahydro-s-indacen-4-yl)carbamoyl)((4,6,7,8-tetrahydro-5,8-ethanothieno[3,2-c]azepin-2-yl)sulfonyl)amide] registered an IC50 below 100 nM.

As for `COc1cc(-c2ccc3c(c2NC(=O)NS(=O)(=O)c2cc4c(o2)C2CCN(CC2)C4)CCC3)ccn1` [Compound 27, N-((5-(2-methoxypyridin-4-yl)-2,3-dihydro-1H-inden-4-yl)carbamoyl)-4,6,7,8-tetrahydro-5,8-ethanofuro[3,2-c]azepine-2-sulfonamide], in assay [2], the half-maximal inhibitory concentration (IC50) is below 1000 nM.

Molecule `COc1cc(-c2ccc3c(c2NC(=O)NS(=O)(=O)c2cc4c(s2)C2CCN(CC2)C4)CCC3)ccn1` [Compound 28, N-((5-(2-methoxypyridin-4-yl)-2,3-dihydro-1H-inden-4-yl)carbamoyl)-4,6,7,8-tetrahydro-5,8-ethanothieno[3,2-c]azepine-2-sulfonamide] had an IC50 in assay [2] below 1000 nM.

Turning to `CC(C)c1ccc2c(c1NC(=O)NS(=O)(=O)c1cc3c(o1)C1CCN(CC1)C3)CCC2` [Compound 29, N-((5-isopropyl-2,3-dihydro-1H-inden-4-yl)carbamoyl)-4,6,7,8-tetrahydro-5,8-ethanofuro[3,2-c]azepine-2-sulfonamide], the concentration for half-maximal inhibition (IC50) in assay [2] was below 1000 nM.

`CC(C)c1cc(F)c2c(c1NC(=O)NS(=O)(=O)c1cc3c(o1)C1CCN(CC1)C3)CCC2` [Compound 30, N-((7-fluoro-5-isopropyl-2,3-dihydro-1H-inden-4-yl)carbamoyl)-4,6,7,8-tetrahydro-5,8-ethanofuro[3,2-c]azepine-2-sulfonamide] yielded an IC50 in assay [2] below 1000 nM.

On to `CC(C)c1ccc(F)c(C(C)C)c1NC(=O)NS(=O)(=O)c1cc2c(o1)C1CCN(CC1)C2` [Compound 31, N-((3-fluoro-2,6-diisopropylphenyl)carbamoyl)-4,6,7,8-tetrahydro-5,8-ethanofuro[3,2-c]azepine-2-sulfonamide], for which the IC50 in assay [2] was below 1000 nM.

For `O=C(Nc1c2c(c(F)c3c1CCC3)CCC2)NS(=O)(=O)c1cc2c(o1)C1CCN(CC1)C2` [Compound 32, N-((8-fluoro-1,2,3,5,6,7-hexahydro-s-indacen-4-yl)carbamoyl)-4,6,7,8-tetrahydro-5,8-ethanofuro[3,2-c]azepine-2-sulfonamide], the half-inhibitory concentration (IC50) in assay [2] is below 1000 nM.

Molecule `N#Cc1c2c(c(NC(=O)NS(=O)(=O)c3cc4c(o3)C3CCN(CC3)C4)c3c1CCC3)CCC2` [Compound 33, N-((8-cyano-1,2,3,5,6,7-hexahydro-s-indacen-4-yl)carbamoyl)-4,6,7,8-tetrahydro-5,8-ethanofuro[3,2-c]azepine-2-sulfonamide] registered a half-inhibitory concentration (IC50) in assay [2] of 1000 to 10000 nM.

For the molecule `CC(C)c1cc(F)cc(C(C)C)c1NC(=O)NS(=O)(=O)c1cc2c(o1)C1CCN(CC1)C2` [Compound 34, N-((4-fluoro-2,6-diisopropylphenyl)carbamoyl)-4,6,7,8-tetrahydro-5,8-ethanofuro[3,2-c]azepine-2-sulfonamide], in assay [2], the concentration for half-maximal inhibition (IC50) lay in the range of 1000 to 10000 nM.

For `CC(C)c1c(F)c(Cl)c(F)c(C(C)C)c1NC(=O)NS(=O)(=O)c1cc2c(o1)C1CCN(CC1)C2` [Compound 35, N-((4-chloro-3,5-difluoro-2,6-diisopropylphenyl)carbamoyl)-4,6,7,8-tetrahydro-5,8-ethanofuro[3,2-c]azepine-2-sulfonamide], the IC50 in assay [2] was below 1000 nM.

`CC(C)c1c(F)cc(F)c(C(C)C)c1NC(=O)NS(=O)(=O)c1cc2c(o1)C1CCN(CC1)C2` [Compound 36, N-((3,5-difluoro-2,6-diisopropylphenyl)carbamoyl)-4,6,7,8-tetrahydro-5,8-ethanofuro[3,2-c]azepine-2-sulfonamide] returned an IC50 in assay [2] of 1000 to 10000 nM.

With `O=C(Nc1c(C2CCOCC2)ccc2c1CCC2)NS(=O)(=O)c1cc2c(o1)C1CCN(CC1)C2` [Compound 37, N-((5-(tetrahydro-2H-pyran-4-yl)-2,3-dihydro-1H-inden-4-yl)carbamoyl)-4,6,7,8-tetrahydro-5,8-ethanofuro[3,2-c]azepine-2-sulfonamide], the IC50 in assay [2] lay in the range of 1000 to 10000 nM.

Take `O=C(Nc1c(C2CC2)ccc2c1CCC2)NS(=O)(=O)c1cc2c(o1)C1CCN(CC1)C2` [Compound 38, N-((5-cyclopropyl-2,3-dihydro-1H-inden-4-yl)carbamoyl)-4,6,7,8-tetrahydro-5,8-ethanofuro[3,2-c]azepine-2-sulfonamide]: the IC50 in assay [2] is below 1000 nM.

In assay [2], `O=C(Nc1c(C2CCCC2)ccc2c1CCC2)NS(=O)(=O)c1cc2c(o1)C1CCN(CC1)C2` [Compound 39, N-((5-cyclopentyl-2,3-dihydro-1H-inden-4-yl)carbamoyl)-4,6,7,8-tetrahydro-5,8-ethanofuro[3,2-c]azepine-2-sulfonamide] had an IC50 of 1000 to 10000 nM.

Regarding `O=C(Nc1c2c(cc3c1CCO3)CCC2)NS(=O)(=O)c1cc2c(o1)C1CCN(CC1)C2` [Compound 40, N-((3,5,6,7-tetrahydro-2H-indeno[5,6-b]furan-4-yl)carbamoyl)-4,6,7,8-tetrahydro-5,8-ethanofuro[3,2-c]azepine-2-sulfonamide], the IC50 in assay [2] is below 1000 nM.

In the case of `O=C(Nc1c(C(F)(F)F)ccc2c1CCC2)NS(=O)(=O)c1cc2c(o1)C1CCN(CC1)C2` [Compound 41, N-((5-(trifluoromethyl)-2,3-dihydro-1H-inden-4-yl)carbamoyl)-4,6,7,8-tetrahydro-5,8-ethanofuro[3,2-c]azepine-2-sulfonamide], the IC50 in assay [2] is below 1000 nM.

In assay [2], `O=C(Nc1c(C2CCC2)ccc2c1CCC2)NS(=O)(=O)c1cc2c(o1)C1CCN(CC1)C2` [Compound 42, N-((5-cyclobuty1-2,3-dihydro-1H-inden-4-yl)carbamoyl)-4,6,7,8-tetrahydro-5,8-ethanofuro[3,2-c]azepine-2-sulfonamide] returned a concentration for half-maximal inhibition (IC50) of 1000 to 10000 nM.

On to `O=C(Nc1c(C2=CCC2)ccc2c1CCC2)NS(=O)(=O)c1cc2c(o1)C1CCN(CC1)C2` [Compound 43, N-((5-(cyclobut-1-en-1-yl)-2,3-dihydro-1H-inden-4-yl)carbamoyl)-4,6,7,8-tetrahydro-5,8-ethanofuro[3,2-c]azepine-2-sulfonamide], for which, in assay [2], the IC50 fell in the range of 1000 to 10000 nM.

Molecule `CC#Cc1ccc2c(c1NC(=O)NS(=O)(=O)c1cc3c(o1)C1CCN(CC1)C3)CCC2` [Compound 44, N-((5-(prop-1-yn-1-yl)-2,3-dihydro-1H-inden-4-yl)carbamoyl)-4,6,7,8-tetrahydro-5,8-ethanofuro[3,2-c]azepine-2-sulfonamide] came in with an IC50 in assay [2] of 1000 to 10000 nM.
